The source of these data is PubChem BioAssay AID588681 (The Scripps Research Institute Molecular Screening Center, 2011).

Active and inactive are the calls of the source.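 Rule for the calls: active = half-maximal IDE activation concentration EC50 of 10 µM or lower; inactive = EC50 above 10 µM.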

The target of the test is Insulin-degrading enzyme (Homo sapiens) (UniProt P14735). Nature of the test: recombinant IDE activation, cell-free – biochemical, fluorescence polarization, counter-screen for IDE activator project, dose response (AID 588681). Particulars: FAbetaB cleavage. Background: Fluorescence polarisation rises when a labelled molecule tumbles more slowly, as on binding a larger partner.
Insulin-degrading enzyme (Homo sapiens), sequence (P14735 whole entry, looked up): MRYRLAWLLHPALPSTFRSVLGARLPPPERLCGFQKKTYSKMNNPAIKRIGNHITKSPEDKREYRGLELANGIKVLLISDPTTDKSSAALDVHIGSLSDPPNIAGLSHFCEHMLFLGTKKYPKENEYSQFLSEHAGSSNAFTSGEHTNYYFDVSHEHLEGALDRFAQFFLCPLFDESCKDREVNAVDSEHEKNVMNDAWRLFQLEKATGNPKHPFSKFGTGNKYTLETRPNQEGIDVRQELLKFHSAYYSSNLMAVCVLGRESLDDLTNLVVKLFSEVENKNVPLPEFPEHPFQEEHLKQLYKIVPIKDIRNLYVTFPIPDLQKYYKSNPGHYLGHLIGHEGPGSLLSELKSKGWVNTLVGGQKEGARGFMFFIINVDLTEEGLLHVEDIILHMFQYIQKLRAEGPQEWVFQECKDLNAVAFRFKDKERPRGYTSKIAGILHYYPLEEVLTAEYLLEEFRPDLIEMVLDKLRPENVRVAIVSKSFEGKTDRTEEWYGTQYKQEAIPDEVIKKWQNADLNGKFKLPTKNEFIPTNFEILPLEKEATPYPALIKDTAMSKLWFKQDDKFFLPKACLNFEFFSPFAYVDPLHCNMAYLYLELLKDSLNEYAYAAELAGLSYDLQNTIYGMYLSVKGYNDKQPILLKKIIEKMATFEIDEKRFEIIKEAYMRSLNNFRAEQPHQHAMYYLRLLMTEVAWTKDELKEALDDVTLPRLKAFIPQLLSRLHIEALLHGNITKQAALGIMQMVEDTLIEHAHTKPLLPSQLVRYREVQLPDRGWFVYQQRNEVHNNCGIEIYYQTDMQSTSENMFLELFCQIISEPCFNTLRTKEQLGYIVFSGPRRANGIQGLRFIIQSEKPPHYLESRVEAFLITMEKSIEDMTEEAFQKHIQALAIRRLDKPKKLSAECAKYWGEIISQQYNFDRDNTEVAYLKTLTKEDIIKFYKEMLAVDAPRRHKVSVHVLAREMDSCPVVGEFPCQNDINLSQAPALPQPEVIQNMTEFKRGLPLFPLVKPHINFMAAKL
Take `C#CCOCCOCCOCCNc1nc(N2CCN(C(=O)CCCCCCCCCCNC(=O)[C@H](CCCCN)n3cc(CCO)nn3)CC2)nc(N2CCN(C(=O)CCCCCCCCCCNC(=O)[C@H](CCCN=C(N)N)n3cc(C[C@@H](C)CC)nn3)CC2)n1`: the EC50 was 7.08 µM.

On to `C#CCOCCOCCOCCNc1nc(N2CCN(C(=O)CCCCCCCCCCNC(=O)Cn3cc(CCCCCN)nn3)CC2)nc(N2CCN(C(=O)CCCCCCCCCCNC(=O)Cn3cc(C[C@@H](C)O)nn3)CC2)n1`, for which the EC50 is > 54.7 µM (inactive). Turning to `C#CCOCCOCCOCCNc1nc(N2CCN(C(=O)CCCCCCCCCCNC(=O)[C@H]([C@@H](C)CC)n3cc(CCCCCN)nn3)CC2)nc(N2CCN(C(=O)CCCCCCCCCCNC(=O)[C@H]([C@@H](C)CC)n3cc(CCCCN=C(N)N)nn3)CC2)n1`, the 50% effective concentration (EC50) is 2.32 µM. Then `C#CCOCCOCCOCCNc1nc(N2CCN(C(=O)CCCCCCCCCCNC(=O)[C@@H](CCSC)n3cc(CCO)nn3)CC2)nc(N2CCN(C(=O)CCCCCCCCCCNC(=O)[C@H](CO)n3cc(CCCCCN)nn3)CC2)n1`, with “inactive”; and `C#CCOCCOCCOCCNc1nc(N2CCN(C(=O)CCCCCCCCCCNC(=O)Cn3cc(CCCCCN)nn3)CC2)nc(N2CCN(C(=O)CCCCCCCCCCNC(=O)[C@H](CO)n3cc(CCCSC)nn3)CC2)n1`, with “inactive”.

Take `C#CCOCCOCCOCCNc1nc(N2CCN(C(=O)CCCCCCCCCCNC(=O)Cn3cc(CCCCCN)nn3)CC2)nc(N2CCN(C(=O)CCCCCCCCCCNC(=O)[C@H]([C@@H](C)CC)n3cc(CCCCCN)nn3)CC2)n1`: the EC50 is 8.55 µM.

For the molecule `C#CCOCCOCCOCCNc1nc(N2CCN(C(=O)CCCCCCCCCCNC(=O)[C@H](CO)n3cc(CCCSC)nn3)CC2)nc(N2CCN(C(=O)CCCCCCCCCCNC(=O)[C@H](CCCCN)n3cc(CCO)nn3)CC2)n1`, the EC50 is > 54.7 µM (inactive).

Take `C#CCOCCOCCOCCNc1nc(N2CCN(C(=O)CCCCCCCCCCNC(=O)Cn3cc(C[C@@H](C)O)nn3)CC2)nc(N2CCN(C(=O)CCCCCCCCCCNC(=O)[C@H](CCCN=C(N)N)n3cc(C[C@@H](C)CC)nn3)CC2)n1`: the EC50 was 6.55 µM.

For orientation: EC50 means the midpoint of the concentration-response curve.
